Results: US20110209699A1, “COMBINATION OF DEHYDROEPIANDROSTERONE OR DEHYDROEPIANDROSTERONE-SULFATE WITH A LIPOXYGENASE INHIBITOR FOR TREATMENT OF ASTHMA OR CHRONIC OBSTRUCTIVE PULMONARY DISEASE” (priority 2003, published 2011)

Assays:
[1] = HPLC analysis of drug degradation during jet milling micronization; format: physicochemical; details: single and double pass jet-milled powder vs unmilled standard, HPLC peak area
Method: Approximately 1 g sample was passed through the jet mill, once, and approximately 2 g sample were passed through the jet mill twice. […] The resulting solution was sonicated for 3 minutes and appeared fully dispersed. The dispersed solutions were tested on a Malvern Mastersizer X with a small volume sampler (SVS) attachment. One sample of dispersed material was tested 5 times. The median particle size or D (v, 0.5) of unmilled material was 52.56 μm and the % RSD (relative standard deviation) was 7.61 for the 5 values. The D (v, 0.5) for a single pass through the jet mill was 3.90 μm and the % RSD was 1.27, and the D (v, 0.5) from a double pass through the jet mill 3.25 μm and the % RSD was 3.10.
Two vials (A; single-pass; 150 mg) and (B double-pass; 600 mg) of the micronized drug were available for determining drug degradation during jet milling micronization. […] The chromatographic peak area for the HPLC assay of the unmilled drug standard solution (10 mg/ml) gave a value of 23,427. […] The chromatographic peak areas for vials A and B were 11,979 and 11,677, respectively.

[2] = Physicochemical testing before and after micronization; details: for Particle size (D50%): laser diffraction; for Water (% w/w): Karl Fischer
Method: Surface area is determined using five point BET analyses are performed with nitrogen as the adsorbing gas (P/Po=0.05 to 0.30) using a Micromeritics TriStar surface area analyzer. Particle size distributions are measured by laser diffraction using a Micromeritics Saturn Digisizer where the particles are suspended in mineral oil with sodium dioctyl sodium sulfosuccinate as a dispersing agent. Drug substance water content is measured by Karl Fischer titration (Schott Titroline KF). Pure water is used as the standard and all relative standard deviations for triplicates are less than 1%. Powder is added directly to the titration media.

HT-29 SF cells [3] = test: Reversal of DHEA-mediated growth inhibition; format: cell-based, human; details: 25 μM DHEA, 48 hour treatment; MVA 2 μM, SQ 80 μM, CH 15 μg/ml, RN 30 μM each, DN 20 μM each
HT-29 SF cells [4] = test: Reversal of DHEA effect on cell cycle; format: cell-based, human; details: 25 μM DHEA
Intracellular adenosine = test: In vivo effect on adenosine levels in various rat tissues; set-up: species or system Fischer 344 rats; details: for Intracellular adenosine (nmols)/mg protein, Brain: rat brain, control 0.5 ± 0.04
Method: Folinic acid (50 mg/kg) was administered intraperitoneally once daily for fourteen days. […] Hearts were removed from animals and flash frozen in liquid nitrogen with 10 s of death. Liver and lungs were removed en bloc and flash frozen with 30 s of death. Brain tissue was subsequently dissected.

[5] = Solubility of DHEA-S as a function of NaCl concentration and temperature; format: physicochemical; details: for equilibrium constant Ksp=[DHEA-S-][Na+]: slope of solubility vs reciprocal sodium concentration
Excerpt: Inhalation of pure water can produce a cough stimulus. […] The temperature effect is weaker at high NaCl concentrations.

[6] = Short-term solution stability of nebulizer formulation; format: physicochemical; details: 10 mg/mL in 0.12% NaCl, clear glass vials
Method: Aliquots of this solution are filled into clear glass vials and stored at RT (24-26° C.) and at 40° C. The samples are checked daily for DHEA-S content, DHEA content, and appearance. For each time point, duplicate samples are withdrawn and diluted from each vial. […] The study is stopped on day three. […] The solution should easily be stable for the day of reconstitution in a clinical trial. The following section describes the aerosol properties of this formulation.

[7] = tested on: rat peritoneal mast cells; test: Mast cell degranulation (histamine secretion) after compound 48/80; format: cell-based; details: at 0.1 uM; 0.1 μg/ml compound 48/80; 2 min at 37° C.
Excerpt: Leukotrienes are synthesized—though not exclusively by the mast cell (Gilchrist, M., McCauley, S. D., & Befus, A. D. (2004) Expression, localization, and regulation of NOS in human mast cell lines: effects on leukotriene production. Blood 104, 462-469). We determined whether DHEA-sulfate would reduce mast cell degranulation after stimulation with compound 48/80 in rat peritoneal mast cells. Mast cell degranulation was quantified by measurement of histamine, another substance contained within the secretory granules of mast cells. The release of histamine is believed to parallel the release of leukotrienes.
Freshly isolated rat peritoneal mast cells (2×10^5 cells) were pre-incubated for 5 min at 37° C. in a Balanced Salt Solution containing 150 mM NaCl (pH 7.4), 2.7 mM KCl, 0.9 mM CaCl2, 4 mM Na2HPO4, 2.7 mM KH2PO4, 1.75 mg/ml BSA and 0.1 μg/ml compound 48/80.
Following incubation, the mixture is cooled to 4° C. then centrifuged at 4500 rpm for 5 min. The supernatant is collected and mixed for 30 min at 4° C. with 5% TCA (trichloroacetic acid) to cause protein precipitation. […]
The amount of secreted histamine is quantified by measuring the fluorescence intensity at λex=360 nm and λem=450 nm using a spectrofluorimeter (GeminiXS, Molecular Devices). The results are expressed as a percent inhibition of control histamine secretion.

HT-29 SF cells [8] = test: DHEA effect on cell cycle (flow cytometry); format: cell-based, human; details: 25, 50 or 200 μM; 24, 48, 72 hours; propidium iodide DNA content
HT-29 SF cells [9] = test: DHEA effect on cell growth (Coulter counter); details: 0, 12.5, 25, 50 or 200 μM; cell number at 0, 24, 48, 72 hours
Method: Cell cultures, HT-29 SF cells, which represent a subline of HY-29 cells (ATCC, Rockville, Md.) and are adapted for growth in completely defined serum-free PC-1 medium (Ventrex, Portland, Me.), were obtained. Stock cultures were maintained in this medium at 37° C. (in a humidified atmosphere containing 5% CO2).

[10] = calculated for 20 mM Na+ (0.12% NaCl), Ksp 1316 mM^2, 15° C.

C[C@]12CC[C@H](OS(=O)(=O)[O-])CC1=CC[C@@H]1[C@@H]2CC[C@]2(C)C(=O)CC[C@@H]12.[Na+] [Anhydrous DHEA-S]
drug degradation during jet milling micronization [1]: no detectable degradation

CC12CCC3C(CC=C4CC(OS(=O)(=O)[O-])CCC43C)C1CCC2=O.[Na+] (stereo not drawn) [DHEA-S dihydrate]
Particle size (D50%) ([2]; Bulk, before micronization): 31 microns
Water (% w/w) ([2]; Bulk): 8.5 % w/w
Particle size (D50%) ([2]; Micronized (jet mill)): 3.7 microns
Water (% w/w) ([2]; Micronized): 8.4 % w/w
Surface area (m^2/g) ([2]; Micronized, five point BET): 4.9 m^2/g

CC(C)CCC[C@@H](C)[C@H]1CC[C@H]2[C@@H]3CC=C4C[C@@H](O)CC[C@]4(C)[C@H]3CC[C@]12C [CH, cholesterol]
reversal of DHEA-induced growth inhibition by medium supplement (HT-29 SF cells [3]): no such effect
prevention of DHEA-induced S phase depletion by medium supplement (HT-29 SF cells [4]; 48 hours): very little effect
prevention of DHEA-induced S phase depletion by medium supplement (HT-29 SF cells [4]; 72 hours): no effect

C[C@]12CCC(=O)C=C1CC[C@@H]1[C@@H]2CC[C@@]2(C)[C@H]1CC[C@]2(C)O [Methyltestosterone]
Intracellular adenosine (nmols)/mg protein, Brain (Intracellular adenosine; methyltestosterone 120 mg/kg, alone or + folinic acid 50 mg/kg, mean ± SEM): 0.32 ± 0.03 nmols/mg protein
Intracellular adenosine (nmols)/mg protein, Heart (Intracellular adenosine; rat heart, methyltestosterone 120 mg/kg, alone or + folinic acid 50 mg/kg, mean ± SEM, control 10.6 ± 0.6): 6.0 ± 0.4 nmols/mg protein
Intracellular adenosine (nmols)/mg protein, Liver (Intracellular adenosine; rat liver, methyltestosterone 120 mg/kg, mean ± SEM, control 14.5 ± 1.0): 5.1 ± 0.5 nmols/mg protein
Intracellular adenosine (nmols)/mg protein, Liver (Intracellular adenosine; rat, in vivo): 16.5 ± 0.9 nmols/mg protein

C[C@@](O)(CCO)CC(=O)O [MVA, mevalonic acid]
reversal of DHEA-induced growth inhibition by medium supplement (HT-29 SF cells [3]): partially overcome
prevention of DHEA-induced S phase depletion by medium supplement (HT-29 SF cells [4]; 48 hours): partially prevented this effect
prevention of DHEA-induced S phase depletion by medium supplement (HT-29 SF cells [4]; 72 hours): not after 72 hours

C[C@]12CC[C@H](OS(=O)(=O)[O-])CC1=CC[C@@H]1[C@@H]2CC[C@]2(C)C(=O)CC[C@@H]12.[Na+] [DHEA-S, sodium dehydroepiandrostenone sulfate]
equilibrium constant Ksp=[DHEA-S-][Na+] ([5]; RT (24-25° C.)): 2236 mM^2
estimated DHEA-S solution concentration [5, 10]: 10.7 mg/mL
estimated DHEA-S- solution concentration [5, 10]: 27.5 mM
equilibrium constant Ksp=[DHEA-S-][Na+] ([5]; refrigerated (7-8° C.)): 665 mM^2
solution appearance on storage ([6]; 40° C.): became cloudy after two days of storage
solution appearance on storage ([6]; RT (24-26° C.)): slight precipitate is observed on the third day
maximal effect, percent inhibition of control histamine secretion [7]: 69.9%

C[C@]12CC[C@H](O)CC1=CC[C@@H]1[C@@H]2CC[C@]2(C)C(=O)CC[C@@H]12 [DHEA, 3β-hydroxyandrost-5-en-17-one]
Intracellular adenosine (nmols)/mg protein, Heart (Intracellular adenosine; rat, in vivo): 6.7 ± 0.5
solubility in water ([5]; water): insoluble
effect on cell cycle distribution (HT-29 SF cells [8]): G1 block in HT-29 SF cells in a time- and dose-dependent manner
inhibition of growth (HT-29 SF cells [9]): time- and dose-dependent inhibition of growth

CC(C)=CCC/C(C)=C/CC/C(C)=C/CC/C=C(\C)CC/C=C(\C)CCC=C(C)C [SQ, squalene]
reversal of DHEA-induced growth inhibition by medium supplement (HT-29 SF cells [3]): no such effect

Nc1nc(=O)c2c([nH]1)NCC(CNc1ccc(C(=O)N[C@@H](CCC(=O)O)C(=O)O)cc1)N2C=O (mixture of isomers) [Folinic Acid]
Intracellular adenosine (nmols)/mg protein, Brain (Intracellular adenosine; once daily 14 days, DHEA 300 mg/kg or methyltestosterone 40 mg/kg by gavage, folinic acid 50 mg/kg i.p., alone or combined, mean ± SEM): 0.72 ± 0.09 nmols/mg protein
Intracellular adenosine (nmols)/mg protein, Heart (Intracellular adenosine; rat heart, once daily 14 days, DHEA 300 mg/kg or methyltestosterone 40 mg/kg by gavage, folinic acid 50 mg/kg i.p., alone or combined, mean ± SEM, control 10.6 ± 0.6): 12.4 ± 2.1 nmols/mg protein
Intracellular adenosine (nmols)/mg protein, Liver (Intracellular adenosine; rat liver, once daily 14 days, DHEA 300 mg/kg or methyltestosterone 40 mg/kg by gavage, folinic acid 50 mg/kg i.p., alone or combined, mean ± SEM, control 14.5 ± 1.0): 16.4 ± 2.4 nmols/mg protein
adenosine levels when administered alone (Intracellular adenosine; rat, in vivo): increase in adenosine levels for all organs studied
effect of coadministration on steroid-mediated adenosine depletion (Intracellular adenosine; rats, folinic acid 50 mg/kg i.p. with DHEA or methyltestosterone, 14 days): completely abrogated steroid-mediated adenosine depletion
